Assay results taken from patent publication US4075340A, “Thieno [2,3-C] pyridine derivatives and therapeutic composition containing same” (Parcor, priority 1975, dated 1978).
Where a name gives a salt, the structure may show the parent alone. Read-outs that look alike come from different tables or passages of the source.

Key:
[1] = test system: ovalbumin-induced systemic edema in rats; test: Ovalbumin-induced Systemic Edema Method; assay type: in vivo; settings: Rattus norvegicus, oral 100 mg/kg, 1 hour before and with ovalbumin
Procedure: b) Ovalbumin-induced Systemic Edema Method
Rats are administered a simultaneous intraperitoneal injection of 1 ml ovalbumin and 0.5 ml of a 1% aqueous Evans Blue solution. The animals of the treated group are additionally administered orally 100 mg/kg of the test derivative, one hour prior to ovalbumin administration and then simultaneously with said ovalbumin administration. The intensity of the phenomenon thus induced is rated according to a scale from 1 to 5, according to the progress of the inflammatory syndrome. The measurements are effected after 2 hours and after 3 hours. Thus are determined the mean intensity of the edema and the percent decrease of the edema reaction.

[2] = test system: carrageenin-induced edema in rats; test: Localized Carrageenin-induced Edema Method; assay type: in vivo; settings: Rattus norvegicus, oral 100 mg/kg, repeated (1 hour before, with, 1 and 2.5 hours after carrageenin)
Procedure: a) Localized Carrageenin-induced Edema Method
0.1 ml of a 1% carrageenin solution is injected at time 0 in the metatarsal flexor muscles of the right hind limb of rats. The animals of the treated group are administered orally, additionally, 100 mg/kg of the test derivative, respectively one hour prior to and then simultaneously with the phlogogenic agent, and then one hour and 2.5 hours thereafter. The determinations effected with a ROCH micrometer at times 0, 1 hour, 2 hrs, 3 hrs and 5hrs after carrageenin administration, make it possible to determine the percent anti-inflammatory activity, as a function of time.

[3] = test system: blood platelet aggregation; test: Inhibiting activity on blood platelet aggregation (adenosine diphosphate induced, turbidimetric assay); assay type: in vivo; settings: rat plasma, animals administered 100 mg/kg, read-out: percent inhibition on blood platelet aggregation
Procedure: Rat plasma, prepared to contain 600,000+20,000 blood platelets per mm3 is normally cloudy. Addition of adenosine diphosphate induces blood platelet aggregation and, thus an increase of the light transmission. When the same test is effected with a plasma prepared from the blood of an animal which has been administered 100 mg/kg of a derivative having an inhibiting effect on blood platelet aggregation, there is no aggregation of the blood platelets and the serum remains cloudy. The turbidimetric assay effected with a spectrophotometer provides a measure of the inhibiting activities of the test derivatives on blood platelet aggregation.

[4] = acute toxicity, LD50 /24 hrs/kg body weight, intravenous route, method according to Miller and Tainter; settings: in vivo
[5] = after 2 hours, read-out: Percent decrease (of the edema reaction) after 2 hours
[6] = after 3 hours, read-out: Percent decrease (of the edema reaction) after 3 hours
[7] = after 1 hour, read-out: Percent anti-inflammatory activity after 1 hour
[8] = after 2 hours, read-out: Percent anti-inflammatory activity after 2 hours
[9] = after 5 hours, read-out: Percent anti-inflammatory activity after 5 hours

Compound: CCCCCCCCCCCCN1CCc2ccsc2C1 [Derivative No. 1, 6-n-dodecyl-4,5,6,7-tetrahydro-thieno[2,3-c]pyridine]
- inhibition in vivo at 100 mg/kg [1, 5]: 36%
- inhibition in vivo at 100 mg/kg [1, 6]: 51%
- inhibition in vivo at 100 mg/kg [2, 7]: 38%
- inhibition in vivo at 100 mg/kg [2, 8]: 46%
- inhibition in vivo at 100 mg/kg [2, 9]: 54%

Compound: COc1cc(CN2CCc3ccsc3C2C)cc(OC)c1OC (stereo not shown) [Derivative No. 3, 7-methyl-6-(3,4,5-trimethoxy-benzyl)-4,5,6,7-tetrahydro-thieno[2,3-c]pyridine]
- inhibition at 100 mg/kg [3]: 91%

Compound: O=C(O)c1ccccc1CN1CCc2ccsc2C1 [Derivative No. 5, 6-o-carboxybenzyl-4,5,6,7-tetrahydro-thieno[2,3-c]pyridine]
- inhibition in vivo at 100 mg/kg [1, 5]: 42%
- inhibition in vivo at 100 mg/kg [1, 6]: 61%
- inhibition in vivo at 100 mg/kg [2, 7]: 44%
- inhibition in vivo at 100 mg/kg [2, 8]: 52%
- inhibition in vivo at 100 mg/kg [2, 9]: 60%

Compound: Clc1ccc(CN2CCc3ccsc3C2)s1 [Derivative No. 6, 6-[2-(5-chloro-thienyl)-methyl]-4,5,6,7-tetrahydro-thieno[2,3-c]pyridine]
- LD50 at 24 h [4]: 135 mg/kg

Compound: CC1c2sccc2CCN1CC(O)c1ccccc1 (stereo not shown) [Derivative No. 7, 6-(2-hydroxy-2-phenyl-ethyl)-7-methyl-4,5,6,7-tetrahydro-thieno[2,3-c]pyridine]
- inhibition at 100 mg/kg [3]: 85%

Compound: CC(=O)OC(CN1CCc2ccsc2C1)c1ccc(Cl)cc1 (stereo not shown) [Derivative No. 8, 6-(2-acetoxy-2-p-chlorophenyl-ethyl)-4,5,6,7-tetrahydro-thieno[2,3-c]pyridine]
- inhibition in vivo at 100 mg/kg [1, 5]: 45%
- inhibition in vivo at 100 mg/kg [1, 6]: 58%
- inhibition in vivo at 100 mg/kg [2, 7]: 40%
- inhibition in vivo at 100 mg/kg [2, 8]: 49%
- inhibition in vivo at 100 mg/kg [2, 9]: 59%

Compound: CC(O)CN1CCc2ccsc2C1.Cl (stereo not shown) [Derivative No. 9, 6-(2-hydroxy-propyl)-4,5,6,7-tetrahydro-thieno[2,3-c]pyridine, hydrochloride]
- inhibition at 100 mg/kg [3]: 89%
- LD50 at 24 h [4]: 120 mg/kg

Compound: COc1cccc(C(CN2CCc3ccsc3C2)OC(C)=O)c1 (stereo not shown) [Derivative No. 10, 6-(2-acetoxy-2m.methoxyphenyl-ethyl)-4,5,6,7-tetrahydro-thieno[2,3-c]pyridine]
- LD50 at 24 h [4]: 80 mg/kg

Compound: Cl.O=[N+]([O-])c1ccccc1CN1CCc2ccsc2C1 [Derivative No. 11, 6-o-nitrobenzyl-4,5,6,7-tetrahydro-thieno[2,3-c]pyridine, hydrochloride]
- LD50 at 24 h [4]: 160 mg/kg

Compound: O=[N+]([O-])c1ccc(CN2CCc3ccsc3C2)cc1 [Derivative No. 12, 6-p-nitrobenzyl-4,5,6,7-tetrahydro-thieno[2,3-c]pyridine]
- inhibition at 100 mg/kg [3]: 75%

Compound: COc1cc(CN2CCc3ccsc3C2)cc(OC)c1OC.O=C(O)/C=C\C(=O)O [Derivative No. 17, 6-(3,4,5-trimethoxy-benzyl)-4,5,6,7-tetrahydro-thieno[2,3-c]pyridine, maleate]
- LD50 at 24 h [4]: 80 mg/kg

Compound: COc1ccc(CN2CCc3ccsc3C2)cc1 [Derivative No. 18, 6-p.methoxybenzyl-4,5,6,7-tetrahydro-thieno[2,3-c]pyridine, hydrochloride]
- inhibition at 100 mg/kg [3]: 78%
- LD50 at 24 h [4]: 60 mg/kg

Compound: c1ccc(CCN2CCc3ccsc3C2)cc1 [Derivative No. 19, 6-β-phenethyl-4,5,6,7-tetrahydro-thieno[2,3-c]pyridine, hydrochloride]
- LD50 at 24 h [4]: 48 mg/kg

Compound: COc1cccc(CN2CCc3ccsc3C2)c1 [Derivative No. 20, 6-m.methoxybenzyl-4,5,6,7-tetrahydro-thieno-[2,3-c]pyridine, hydrochloride]
- LD50 at 24 h [4]: 63 mg/kg

Compound: Clc1ccc(CN2CCc3ccsc3C2)cc1 [Derivative No. 21, 6-p.chlorobenzyl-4,5,6,7-tetrahydro-thieno[2,3-c]pyridine, hydrochloride]
- inhibition at 100 mg/kg [3]: 91%
- LD50 at 24 h [4]: 55 mg/kg

Compound: Cl.OC(CN1CCc2ccsc2C1)c1ccccc1 (stereo not shown) [Derivative No. 23, 6-(2-hydroxy-2-phenyl-ethyl)-4,5,6,7-tetrahydro-thieno[2,3-c]pyridine, hydrochloride]
- LD50 at 24 h [4]: 67 mg/kg

Compound: Cc1ccc(CN2CCc3ccsc3C2)cc1 [Derivative No. 24, 6-p.methylbenzyl-4,5,6,7-tetrahydro-thieno[2,3-c]pyridine, hydrochloride]
- inhibition at 100 mg/kg [3]: 78%
- LD50 at 24 h [4]: 45 mg/kg

Compound: COc1ccc(CN2CCc3ccsc3C2)cc1OC.Cl [Derivative No. 25, 6-(3,4-dimethoxy-benzyl)-4,5,6,7-tetrahydro-thieno[2,3-c]pyridine, hydrochloride]
- LD50 at 24 h [4]: 90 mg/kg

Compound: Fc1ccccc1CN1CCc2ccsc2C1 [Derivative No. 26, 6-o.fluorobenzyl-4,5,6,7-tetrahydro-thieno[2,3-c]pyridine, fumarate]
- LD50 at 24 h [4]: 87 mg/kg

Compound: OC(CN1CCc2ccsc2C1)c1ccc(Cl)cc1 (stereo not shown) [Derivative No. 27, 6-(2-hydroxy-2-p.chlorophenyl-ethyl)-4,5,6,7-tetrahydro-thieno[2,3-c]pyridine]
- inhibition at 100 mg/kg [3]: 86%
- LD50 at 24 h [4]: 45 mg/kg

Compound: OC(CN1CCc2ccsc2C1)c1ccc(F)cc1 (stereo not shown) [Derivative No. 29, 6-(2-hydroxy-2-p.fluorophenyl-ethyl)-4,5,6,7-tetrahydro-thieno[2,3-c]pyridine]
- inhibition at 100 mg/kg [3]: 89%
- LD50 at 24 h [4]: 60 mg/kg

Compound: CC1c2sccc2CCN1CCc1ccccc1 (stereo not drawn) [Derivative No. 31, 7-methyl-6-β-phenethyl-4,5,6,7-tetrahydro-thieno[2,3-c]pyridine, maleate]
- LD50 at 24 h [4]: 53 mg/kg

Compound: COc1cccc(C(O)CN2CCc3ccsc3C2C)c1 (stereo not shown) [Derivative No. 33, 6-(2-hydroxy-2-m.methoxyphenyl-ethyl)-7-methyl-4,5,6,7,-tetrahydro-thieno[2,3-c]pyridine]
- inhibition at 100 mg/kg [3]: 74%

Compound: COc1ccc(OC)c(C(O)CN2CCc3ccsc3C2C)c1 (stereo not shown) [Derivative No. 34, 6-[2-(2,5-dimethoxy-phenyl)-2-hydroxy-ethyl]-7-methyl-4,5,6,7-tetrahydro-thieno[2,3-c]pyridine]
- LD50 at 24 h [4]: 84 mg/kg

Compound: COc1ccc(OCC(O)CN2CCc3ccsc3C2)cc1 (stereo not shown) [Derivative No. 35, 6-(2-hydroxy-3-p.methoxyphenoxy-propyl)-4,5,6,7-tetrahydro-thieno[2,3-c]pyridine, hydrochloride]
- LD50 at 24 h [4]: 19 mg/kg

Compound: CC(=O)CCN1CCc2ccsc2C1.O=C(O)/C=C\C(=O)O [Derivative No. 36, 6-(3-oxo-butyl)-4,5,6,7-tetrahydro-thieno[2,3-c]-pyridine, maleate]
- LD50 at 24 h [4]: 16 mg/kg

Compound: OC(CN1CCc2ccsc2C1)C(Cl)(Cl)Cl (stereo not shown) [Derivative No. 37, 6-(2-hydroxy-3,3,3-trichloro-propyl)-4,5,6,7-tetrahydro-thieno[2,3-c]pyridine]
- LD50 at 24 h [4]: 18 mg/kg

Compound: COc1ccc(CN2CCc3ccsc3C2)cc1OC [Derivative No. 38, 6-(3,4-dimethoxy-benzyl)-4,5,6,7-tetrahydro-thieno[2,3-c]pyridine]
- LD50 at 24 h [4]: 22 mg/kg

Compound: Cc1c2sccc2cc[n+]1CC(=O)c1ccccc1.[Br-] [Derivative No. 39, 7-methyl-6-phenacyl-thieno[2,3-c]pyridinium bromide]
- LD50 at 24 h [4]: 35 mg/kg

Compound: COc1ccc(C(=O)C[n+]2ccc3ccsc3c2C)cc1.[Br-] [Derivative No. 44, 7-methyl-6-p-methoxyphenacyl-thieno[2,3-c]pyridinium bromide]
- LD50 at 24 h [4]: 51 mg/kg

Compound: COc1cccc(C(CN2CCc3ccsc3C2)OC(C)=O)c1 (stereo not shown) [compound 10]
- inhibition in vivo at 100 mg/kg [1, 5]: 48%
- inhibition in vivo at 100 mg/kg [1, 6]: 55%
- inhibition in vivo at 100 mg/kg [2, 7]: 43%
- inhibition in vivo at 100 mg/kg [2, 8]: 50%
- inhibition in vivo at 100 mg/kg [2, 9]: 56%

Compound: OC(CN1CCc2ccsc2C1)c1ccccc1 (stereo not shown) [compound 23]
- inhibition in vivo at 100 mg/kg [1, 5]: 50%
- inhibition in vivo at 100 mg/kg [1, 6]: 61%
- inhibition in vivo at 100 mg/kg [2, 7]: 39%
- inhibition in vivo at 100 mg/kg [2, 8]: 51%
- inhibition in vivo at 100 mg/kg [2, 9]: 58%

Compound: COc1ccc(CN2CCc3ccsc3C2)c(OC)c1OC [compound 28]
- inhibition in vivo at 100 mg/kg [1, 5]: 45%
- inhibition in vivo at 100 mg/kg [1, 6]: 63%
- inhibition in vivo at 100 mg/kg [2, 7]: 43%
- inhibition in vivo at 100 mg/kg [2, 8]: 52%
- inhibition in vivo at 100 mg/kg [2, 9]: 61%

Compound: COc1ccc(C(O)CN2CCc3ccsc3C2)cc1 (stereo not shown) [compound 30]
- inhibition in vivo at 100 mg/kg [1, 5]: 39%
- inhibition in vivo at 100 mg/kg [1, 6]: 59%
- inhibition in vivo at 100 mg/kg [2, 7]: 38%
- inhibition in vivo at 100 mg/kg [2, 8]: 44%
- inhibition in vivo at 100 mg/kg [2, 9]: 51%

Compound: COc1ccc(OC)c(C(O)CN2CCc3ccsc3C2C)c1 (stereo not shown) [compound 34]
- inhibition in vivo at 100 mg/kg [1, 5]: 45%
- inhibition in vivo at 100 mg/kg [1, 6]: 61%
- inhibition in vivo at 100 mg/kg [2, 7]: 37%
- inhibition in vivo at 100 mg/kg [2, 8]: 48%
- inhibition in vivo at 100 mg/kg [2, 9]: 58%
